Data on 2 compounds can be found in patent US10335462B2, “Use of long-acting GLP-1 peptides” (Novo Nordisk A/S, priority 2012, dated 2019).

Like-named read-outs stand apart in the source and are kept apart here.

Data set [1] has as its system human subjects with type 2 diabetes. The following applies: in vivo.
From the text: (§1) The placebo composition may be identical to the composition of the GLP-1 agonists, but not containing a GLP-1 agonist.
(§2) In a 12-week, randomised, double-blind, placebo-controlled trial, 411 human subjects (n=43-50 per group) with type 2 diabetes were exposed.
Data set [2] shares this test system. Nature of the data set: 12-week randomised, double-blind, placebo-controlled trial: safety and tolerability.
From the text: as §1, §2

As to `CCCCCCCCCCCCCCCC(=O)N[C@@H](CCC(=O)NCCCC[C@H](NC(=O)[C@H](C)NC(=O)[C@H](C)NC(=O)[C@H](CCC(N)=O)NC(=O)CNC(=O)[C@H](CCC(=O)O)NC(=O)[C@H](CC(C)C)NC(=O)[C@H](Cc1ccc(O)cc1)NC(=O)[C@H](CO)NC(=O)[C@H](CO)NC(=O)[C@@H](NC(=O)[C@H](CC(=O)O)NC(=O)[C@H](CO)NC(=O)[C@@H](NC(=O)[C@H](Cc1ccccc1)NC(=O)[C@@H](NC(=O)CNC(=O)[C@H](CCC(=O)O)NC(=O)[C@H](C)NC(=O)[C@@H](N)Cc1cnc[nH]1)[C@@H](C)O)[C@@H](C)O)C(C)C)C(=O)N[C@@H](CCC(=O)O)C(=O)N[C@@H](Cc1ccccc1)C(=O)N[C@H](C(=O)N[C@@H](C)C(=O)N[C@@H](Cc1c[nH]c2ccccc12)C(=O)N[C@@H](CC(C)C)C(=O)N[C@H](C(=O)N[C@@H](CCCNC(=N)N)C(=O)NCC(=O)N[C@@H](CCCNC(=N)N)C(=O)NCC(=O)O)C(C)C)[C@@H](C)CC)C(=O)O` [liraglutide], in data set [1], the major hypoglycaemia result is on record as “no major hypoglycaemia”, the reports of pancreatitis result is listed as “no reports”, the “treatment-related changes in blood calcitonin” value is given as “no reports” and the “withdrawals due to gastrointestinal adverse events” value was 2.2%-10.
Turning to `CC[C@H](C)[C@H](NC(=O)[C@H](Cc1ccccc1)NC(=O)[C@H](CCC(=O)O)NC(=O)[C@H](CCCCNC(=O)COCCOCCNC(=O)COCCOCCNC(=O)CC[C@H](NC(=O)CCCCCCCCCCCCCCCCC(=O)O)C(=O)O)NC(=O)[C@H](C)NC(=O)[C@H](C)NC(=O)[C@H](CCC(N)=O)NC(=O)CNC(=O)[C@H](CCC(=O)O)NC(=O)[C@H](CC(C)C)NC(=O)[C@H](Cc1ccc(O)cc1)NC(=O)[C@H](CO)NC(=O)[C@H](CO)NC(=O)[C@@H](NC(=O)[C@H](CC(=O)O)NC(=O)[C@H](CO)NC(=O)[C@@H](NC(=O)[C@H](Cc1ccccc1)NC(=O)[C@@H](NC(=O)CNC(=O)[C@H](CCC(=O)O)NC(=O)C(C)(C)NC(=O)[C@@H](N)Cc1cnc[nH]1)[C@@H](C)O)[C@@H](C)O)C(C)C)C(=O)N[C@@H](C)C(=O)N[C@@H](Cc1c[nH]c2ccccc12)C(=O)N[C@@H](CC(C)C)C(=O)N[C@H](C(=O)N[C@@H](CCCNC(=N)N)C(=O)NCC(=O)N[C@@H](CCCNC(=N)N)C(=O)NCC(=O)O)C(C)C` [semaglutide], in data set [2] (12 weeks), the “proportion of subjects with nausea and vomiting” value was “increased with dose, but were generally mild or moderate and ameliorated by titration”; the reports of pancreatitis result was “no reports”; the safety concerns entry is recorded as “No semaglutide safety concerns were identified”; the “treatment-related changes in blood calcitonin” value is recorded as “no reports”. For the same compound, the major hypoglycaemia entry in data set [2] (all dose groups) is “no major hypoglycaemia”. Further, in data set [2] (range over the dose groups), the “withdrawals due to gastrointestinal adverse events” value is 4.7%-27.7. In addition, the “subjects developing low titre non-neutralising anti-semaglutide antibodies (no cross-reaction to native GLP-1)” value in data set [2] (semaglutide 1.6 mg T) is recorded as “One subject”.
